Laboratory results published in US20180207228A1, “PEPTIDE COMBINATIONS AND USES THEREOF FOR TREATING GRASS ALLERGY” (ALK-Abelló A/S, priority 2015, published 2018).
Where no end group is shown, it is not given here.

Experiments:
Assay type in all cases: cell-based, human
[1] = test system: release of IL-5 upon T cell activation; assay: Fluorospot assay, IL-5 release (DK1-TCL01, US1-TCL01); settings: head prints TCL-02 DK1; text: 25 TCL-01 DK1 lines
Protocol: (§1) Grass allergic donors were recruited (cohort DK1 including 30 grass allergic individuals, DK2 including 24 grass allergic individuals and US1 including 15 grass allergic individuals). PBMCs were isolated from freshly drawn heparinized blood by gradient centrifugation on lymphoprep (Nycomed, Norway), washed twice and re-suspended in RPMI 1640 medium with HEPES and ultraglutamine (Cambrex, Belgium) supplemented with 5% v/v human AB-serum (Cambrex, Belgium), 100 units/ml penicillin, and 0.1 mg/ml streptomycin (Sigma, St Louis, USA) (referred to as 5% AB-medium). Aliquots of the isolated PBMCs were frozen and were thawed later to stimulate the T cell lines. Additionally either fresh or thawed PBMCs were used as antigen presenting cells (APCs) in the proliferation assay as described later. In some cases the PBMCs were freezed at this stage and thawed later on to continue the experiment as described in the following. The isolated PBMCs (fresh or thawed) were CD8 depleted by MACS magnetic depletion according to the manufacturer's instructions (Miltenyi Biotec, Bergisch Gladbach, Germany). On day 0 the CD8-depleted PBMCs (2×10^6/ml) were stimulated in 1 ml bulk cultures in AB medium in 24 well plates (Nunc, Denmark) with the mixture of natural allergens: nPhl p 1 (0.5 μg/ml), mix of nPhl p 2/nPhl p 3 (1.0 μg/ml), nPhl p 4 (0.5 μg/ml), nPhl p 5 (0.5 μg/ml) and nCyn d 1 (0.5 μg/ml). Amount of 65 U, 30 U, and 30 U recombinant IL-2 (Chiron, USA) were added per well at days 5, 6 and 7, respectively. On day 14 cells were harvested to obtain T cell line generation 01 (referred to as TCL01).
(§2) On day 14 the T cells of TCL01 were isolated, washed and counted. The isolated T cells of TCL01 generation were used to perform either ELISpot or Fluorospot assay. TCL01 were further re-stimulated as described in the next paragraph for use in T cell proliferation. The aliquot for use in T cell proliferation was re-stimulated on day 14 to carry out proliferation experiment at day 24.
(§3) In the Fluorospot assays, release of IL-5 and IFN-γ upon T cell activation (of donor derived lines DK1-TCL01, and US1-TCL01) with a peptide or a peptide-mix described herein was measured by Fluorospot assay kit (Mabtech AB) and procedures were followed as per manufacturer's instructions. Briefly anti-human IL-5 and anti-human IFN-γ coated 96 well plates were obtained and blocked with 10% AB serum in RPMI. The plates were washed thoroughly and the isolated T cells were plated and incubated with either single peptides (2 μg/ml) or peptide mixes (2 μg/ml), or allergens nPhl p1, nPhl p 2, nPhl p 3, nPhl p 4, nPhl p 5, Cyn d 1 at 2 μg/ml for 20 hrs/37° C./5% CO2. After the incubation time the cells were removed by emptying the plate. Detection antibodies 7-B6-1-FS-FITC (1:200) and 5A10-biotin (2 μg/ml) were diluted in PBS-0.1% BSA and were added to the plate and incubated for 2 hours/room temperature (RT). There-after the plates were washed and anti-FITC-green (1:200) and SA-Red (1:200) diluted in PBS±0.1% BSA were added and incubated for 1 hour/RT/dark. After the incubation period the plates were washed, emptied and fluorescence enhancer solution was added for 15 minutes/RT. Plates were emptied, fluorescence enhancer solution was firmly tapped out against a clean paper, soft plastic under drain was removed and the plates were left in the dark to dry. The counts were inspected in a fluorospot reader. Hit criteria for peptide were 20 SFCs/10^6 PBMCs, p≤0.05 and poisson 0.05 stimulated cells compared to background, and a stimulation index (SI)≥2.
(§4) The peptides were identified as hits if they fulfilled the criteria as mentioned below where stimulation index (SI) value of 2 or above, Poisson value=<0.05 and P value=<0.05, SFC>=20 (IL-5/IFN-g)/10^6 cells and CPM>=1000 (proliferation) SI can be defined as [[…]/medium control] in a Fluorospot assay and [counts per minute (cpm)/medium control] in a proliferation assay.

[2] = test system: release of IFN-γ upon T cell activation; assay: Fluorospot assay, IFN-γ release (DK1-TCL01, US1-TCL01); settings: head prints TCL-02 DK1; 17 TCL-01 DK1 lines
Protocol: as §1, §2, §3, §4

[3] = test system: allergen specific T cells; assay: T cell proliferation assay (72 h) on donor derived T cell lines (TCL02/TCL03); settings: for Proliferation % donor coverage (TCL-02 DK1): T cell lines TCL-02 DK1, 30 donors, hit criteria SI>=2, CPM>=1000; for Proliferation strength (TCL-02 DK1): T cell lines TCL-02 DK1, strength of response (average relative magnitude)
Procedure, shortened: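 CD8-depleted PBMCs from grass-allergic donors stimulated with natural grass allergen mix (nPhl p 1 0.5 μg/ml) to raise T cell lines; restimulated with irradiated APCs, allergens or PHA-P (0.5 μg/ml) plus rIL-2. Proliferation to overlapping 20-mer and selected 15-mer grass peptides tested with TCL02 (day 24) or TCL03 (day 34).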

| Substance | IL-5-Fluorospotr % donor coverage (TCL-02 DK1) [1] | IFN-gamma % donor coverage (TCL-02 DK1) [2] | Proliferation % donor coverage (TCL-02 DK1) [3] | Proliferation strength (TCL-02 DK1) [3] |
| --- | --- | --- | --- | --- |
| AIGDKPGPNITATYGSKWLE-OH [compound 89] | 0.00% | 0.00% | 6.67% | 1.10 |
| AMSEAQKAAKPAAAATATAT-OH [compound 86] | 0.00% | 0.00% | 10.00% | 1.40 |
| ASGYKDVDKPPFDGMTASGN-OH [compound 93] | 0.00% | 0.00% | 16.67% | 2.40 |
| AVKPAAEEVKVIPAGELQVI-OH [compound 81] | 0.00% | 0.00% | 20.00% | 2.60 |
| AYKTAEGATPEAKYDAYVAT-OH [compound 79] | 0.00% | 0.00% | 26.67% | 3.30 |
| DGKARTAWVDSGAQLGELYY-OH [compound 54] | 4.00% | 4.00% | 26.67% | 4.20 |
| DKYRTFVATFGAASNKAFAE-OH [compound 64] | 16.00% | 0.00% | 36.67% | 6.00 |
| EAAFNNAIKASTGGAYESYK-OH [compound 83] | 0.00% | 0.00% | 10.00% | 0.90 |
| EAKYDAYVATLSEALRIIAG-OH [compound 66] | 20.83% | 0.00% | 46.67% | 11.20 |
| EGTKVTFHVEKGSNPNYLAL-OH [compound 24] | 16.00% | 4.00% | 36.67% | 7.40 |
| EIKSTKPEASSGEPVVVHIT-OH [compound 3] | 8.00% | 8.00% | 36.67% | 3.40 |
| ELTLQFRRVKSKYPSGTKIT-OH [compound 102] | 4.00% | 8.00% | 33.33% | 4.70 |
| EPIFKDGLGSRASYEIKSKE-OH [compound 95] | 0.00% | 4.00% | 20.00% | 2.20 |
| EQKLIEKINAGFKAALAAAA-OH [compound 62] | 4.00% | 0.00% | 36.67% | 6.20 |
| EVELREHGSDEWVAMTKGEG-OH [compound 33] | 0.00% | 0.00% | 0.00% | 0.00 |
| EWVAMTKGEGGVWTFDSEEP-OH [compound 27] | 8.00% | 4.00% | 13.33% | 2.30 |
| FAVVDLNKMRAVWVDGKART-OH [compound 47] | 0.00% | 8.00% | 40.00% | 6.20 |
| FRRVKSKYPEGTKVTFHVEK-OH [compound 23] | 4.00% | 0.00% | 20.00% | 1.60 |
| GAASNKAFAEGLSGEPKGAA-OH [compound 76] | 0.00% | 0.00% | 16.67% | 1.60 |
| GDEQKLRSAGELELQFRRVK-OH [compound 6] | 20.00% | 4.00% | 46.67% | 7.10 |
| GFGMLLRKYGIAAENVIDVK-OH [compound 48] | 4.00% | 15.00% | 30.00% | 4.70 |
| GFKAALAAAAGVPPADKYRT-OH [compound 63] | 12.00% | 0.00% | 26.67% | 4.10 |
| GGASGYKDVDKPPFSGMTGS-OH [compound 18] | 0.00% | 0.00% | 16.67% | 2.30 |
| GNTPIFKSGRGSGSSFEIKS-OH [compound 20] | 0.00% | 0.00% | 13.33% | 1.40 |
| GQEDKLRKAGELTLQFRRVK-OH [compound 101] | 4.00% | 0.00% | 13.33% | 1.20 |
| GRGSGSSFEIKSTKPEASSG-OH [compound 2] | 12.00% | 4.00% | 26.67% | 3.10 |
| GRRHSVRIRVRSGGHDYEGL-OH [compound 51] | 0.00% | 0.00% | 10.00% | 0.40 |
| GSDPKKLVLNIKYTRPGDSL-OH [compound 36] | 24.00% | 8.00% | 53.33% | 11.90 |
| GSNEKHLAVLVKYEGDTMAE-OH [compound 31] | 0.00% | 0.00% | 10.00% | 1.40 |
